The target of one test is T1, CysE (GST-CysE) (Escherichia coli, UniProt P0A9D4).
T1 construct: template plasmid pCysE
T1 sequence (P0A9D4 2-273): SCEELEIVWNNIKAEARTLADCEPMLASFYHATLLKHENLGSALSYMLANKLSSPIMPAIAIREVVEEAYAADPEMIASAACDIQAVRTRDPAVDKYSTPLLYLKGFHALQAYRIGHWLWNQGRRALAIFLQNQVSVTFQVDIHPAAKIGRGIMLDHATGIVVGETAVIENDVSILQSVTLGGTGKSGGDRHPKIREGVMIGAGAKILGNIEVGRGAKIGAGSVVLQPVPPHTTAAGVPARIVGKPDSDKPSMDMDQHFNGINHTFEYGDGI
In words: SAT activity, decrease of OD232 (acetyl-CoA consumption). The note with it: read-out: % residual activity at 1 μM. It counts as biochemical.

Another test has as its target T2, OpSat1p (GST-OpSat1p) (Ogataea parapolymorpha, UniProt W1Q867).
T2 construct: gene HPODL_02797; alpha/beta hydrolase 1 domain
T2 sequence (W1Q867 2-499): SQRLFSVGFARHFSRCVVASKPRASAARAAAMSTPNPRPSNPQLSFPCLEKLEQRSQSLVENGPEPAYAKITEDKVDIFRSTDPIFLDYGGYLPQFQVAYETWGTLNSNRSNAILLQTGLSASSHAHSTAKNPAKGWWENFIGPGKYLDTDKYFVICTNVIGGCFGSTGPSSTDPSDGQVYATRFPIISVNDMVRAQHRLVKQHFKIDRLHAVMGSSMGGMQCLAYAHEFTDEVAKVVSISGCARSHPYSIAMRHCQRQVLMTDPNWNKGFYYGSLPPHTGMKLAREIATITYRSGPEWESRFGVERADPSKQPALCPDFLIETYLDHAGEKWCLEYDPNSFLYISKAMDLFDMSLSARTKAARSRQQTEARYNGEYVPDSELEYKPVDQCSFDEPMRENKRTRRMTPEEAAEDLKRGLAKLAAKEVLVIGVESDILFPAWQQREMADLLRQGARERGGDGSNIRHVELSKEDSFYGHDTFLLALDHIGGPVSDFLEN
Described as above. It counts as biochemical. As to conditions: read-out: concentration of cysteine at 50% inhibition.

Structures are written as SMILES.

For the molecule `N[C@@H](CS)C(=O)O` [L-cysteine], the remaining activity at 1 µM on CysE (GST-CysE) is around 40%. Further, the IC50 on OpSat1p (GST-OpSat1p) was around 250 µM.

The values are drawn from paper PMC5799214, “A Novel Mitochondrial Serine O-Acetyltransferase, OpSAT1, Plays a Critical Role in Sulfur Metabolism in the Thermotolerant Methylotrophic Yeast Ogataea parapolymorpha” (Scientific Reports, 2018).
